Source: patent US20260042764A1, “COMPOSITIONS AND METHODS FOR INHIBITION OF KRAS” (TheRas, Inc., priority 2022, published 2026)

Columns and labels:
[1] = biological target: T1, Avi-KRAS G12V (1-169) GppNHp/RAF1 RBD-3xFLAG (52-151) (Homo sapiens, UniProt P01116, G12V); test: Raf1-KRAS G12V-GppNHP disruption HTRF assay (Biological Example 1); assay type: binding; settings: KRAS G12V-GppNHp/RAF1 RBD HTRF
T1 construct: Avi-KRAS G12V (1-169)
How it was run: (§1)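 Using HTRF, the loss of KRAS–effector RAF1 complex was quantified in 50 mM Tris pH 7.5 buffer with 100 mM NaCl and 0.1% BSA. The protein step and reagent step ran 1 h each at room temperature. Activity normalized with DMSO taken as 100%.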

[2] = biological target: T2, Avi-KRAS G12R (1-169) GppNHp/RAF1 RBD-3xFLAG (52-151) (Homo sapiens, UniProt P01116, G12R); test: Raf1-KRAS G12R-GppNHP disruption HTRF assay (Biological Example 1); assay type: binding; settings: KRAS G12R-GppNHp/RAF1 RBD HTRF
T2 construct: Avi-KRAS G12R (1-169)
T2 sequence (P01116 1-169 isoform P01116-2 G12R): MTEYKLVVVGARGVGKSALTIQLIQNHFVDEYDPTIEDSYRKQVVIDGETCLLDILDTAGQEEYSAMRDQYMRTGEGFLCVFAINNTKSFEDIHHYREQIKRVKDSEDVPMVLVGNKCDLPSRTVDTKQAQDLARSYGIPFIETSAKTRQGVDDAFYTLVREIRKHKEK
How it was run: as §1

GP2d cells (KRAS G12D) = test: Cell-based pERK HTRF assay in GP2d cell (Biological Example 2); settings: GP2d (KRAS G12D) cells, pERK HTRF
How it was run: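 Cells grown in DMEM with 10% FBS were exposed to compound for 60 min at 0.25% DMSO, using a 9-point half-log series starting at 1 μM or 100 nM. Lysates were then mixed with d2 and Eu cryptate antibodies for 4–24 h at room temperature, and pERK was read by HTRF.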

[3] = biological target: T3, Avi-KRAS WT (1-169) GppNHp/RAF1 RBD-3xFLAG (52-151) (Homo sapiens, UniProt P01116); test: Raf1-KRAS WT-GppNHP disruption HTRF assay (Biological Example 1); assay type: binding; settings: KRAS WT-GppNHp/RAF1 RBD HTRF
T3 construct: Avi-KRAS WT (1-169)
T3 sequence (P01116 1-169 isoform P01116-2): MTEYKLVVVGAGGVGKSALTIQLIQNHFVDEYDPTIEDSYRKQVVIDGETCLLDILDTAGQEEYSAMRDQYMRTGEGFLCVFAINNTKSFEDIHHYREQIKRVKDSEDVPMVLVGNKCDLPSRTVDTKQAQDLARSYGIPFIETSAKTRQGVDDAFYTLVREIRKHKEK
How it was run: as §1

[4] = biological target: T4, Avi-KRAS G12D (1-169) GppNHp/RAF1 RBD-3xFLAG (52-151) (Homo sapiens, UniProt P01116, G12D); test: Raf1-KRAS G12D-GppNHP disruption HTRF assay (Biological Example 1); assay type: binding; settings: KRAS G12D-GppNHp/RAF1 RBD HTRF
T4 construct: Avi-KRAS G12D (1-169)
T4 sequence (P01116 1-169 isoform P01116-2 G12D): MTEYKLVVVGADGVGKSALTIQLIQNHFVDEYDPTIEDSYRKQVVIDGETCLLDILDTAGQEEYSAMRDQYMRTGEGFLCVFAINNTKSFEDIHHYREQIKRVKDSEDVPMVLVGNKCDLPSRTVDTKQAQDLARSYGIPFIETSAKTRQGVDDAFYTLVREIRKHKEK
How it was run: as §1

SW620 cells (KRAS G12V) = test: Cell-based pERK HTRF assay in SW620 cell (Biological Example 4); settings: Homo sapiens, SW-620, SW620 (KRAS G12V) cells, pERK HTRF
How it was run: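 In SW620 cells grown in RPMI with 10% FBS, a 4 h compound treatment (0.25% DMSO, 9-point curve from 1 μM) preceded lysis. Phospho-ERK levels were then read by time-resolved FRET at 615 nm emission.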

T1 sequence (P01116 1-169 isoform P01116-2 G12V): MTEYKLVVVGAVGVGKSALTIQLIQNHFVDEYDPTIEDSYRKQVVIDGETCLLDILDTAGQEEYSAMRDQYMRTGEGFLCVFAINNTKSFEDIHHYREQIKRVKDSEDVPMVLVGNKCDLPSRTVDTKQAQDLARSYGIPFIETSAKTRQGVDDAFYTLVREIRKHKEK

Row | IC50 [1] | IC50 [2] | IC50 (GP2d cells (KRAS G12D); GP2d) | IC50 [3] | IC50 [4] | IC50 (SW620 cells (KRAS G12V)) | Compound | IC50 (GP2d cells (KRAS G12D))
1 | 100 to 1000 nM | 100 to 1000 nM | < 100 nM | 100 to 1000 nM | 100 to 1000 nM | < 100 nM | CCN(c1nc(OC[C@@]23CCCN2C[C@H](F)C3)nc2c(F)c(-c3ccc(F)c4sc(N)c(C#N)c34)c(C(F)(F)F)cc12)[C@H]1C[C@H](C)N(C(=O)C(C)C)C1 [Compound 471] | 
2 | 1000 to 10000 nM | 1000 to 10000 nM | < 100 nM | 1000 to 10000 nM | 100 to 1000 nM | < 100 nM | CN(C)C(=O)[C@@H]1CN(c2nc(OC[C@@]34CCCN3C[C@H](F)C4)nc3c(F)c(-c4ccc(F)c5sc(N)c(C#N)c45)c(C(F)(F)F)cc23)CCO1 [Compound 472] | 
3 | 100 to 1000 nM | 100 to 1000 nM | < 100 nM | 100 to 1000 nM | 100 to 1000 nM | < 100 nM | C[C@H]1[C@H](O)CCCN1c1nc(OC[C@@]23CCCN2C[C@H](F)C3)nc2c(F)c(-c3ccc(F)c4sc(N)c(C#N)c34)c(C(F)(F)F)cc12 [Compound 473] | 
4 | 100 to 1000 nM | 100 to 1000 nM | < 100 nM | 100 to 1000 nM | 100 to 1000 nM | < 100 nM | C[C@H]1C[C@H](N(c2nc(OC[C@@]34CCCN3C[C@H](F)C4)nc3c(F)c(-c4ccc(F)c5sc(N)c(C#N)c45)c(C(F)(F)F)cc23)C2CC2)CN1C(=O)C1CC1 [Compound 474] | 
5 | 100 to 1000 nM | 100 to 1000 nM | < 100 nM | 100 to 1000 nM | 100 to 1000 nM | < 100 nM | CCN(c1nc(OC[C@@]23CCCN2C[C@H](F)C3)nc2c(F)c(-c3ccc(F)c4sc(N)c(C#N)c34)c(C(F)(F)F)cc12)[C@@H]1CN(C(=O)C(C)C)C[C@@H]1F [Compound 475] | 
6 | 100 to 1000 nM | 100 to 1000 nM | < 100 nM | 100 to 1000 nM | 100 to 1000 nM | < 100 nM | CN(c1nc(OC[C@@]23CCCN2C[C@H](F)C3)nc2c(F)c(-c3ccc(F)c4sc(N)c(C#N)c34)c(C(F)(F)F)cc12)[C@@H]1C[C@H]2COC(=O)N2C1 [Compound 476] | 
7 | 100 to 1000 nM | 100 to 1000 nM | < 100 nM | 100 to 1000 nM | 100 to 1000 nM | < 100 nM | CCN(c1nc(OC[C@@]23CCCN2C[C@H](F)C3)nc2c(F)c(-c3ccc(F)c4sc(N)c(C#N)c34)c(C(F)(F)F)cc12)[C@@H]1CCS(=O)(=O)C1 [Compound 477] | 
8 | 1000 to 10000 nM | 1000 to 10000 nM | < 100 nM | 100 to 1000 nM | 100 to 1000 nM | < 100 nM | CN1C[C@@H](N(C)c2nc(OC[C@@]34CCCN3C[C@H](F)C4)nc3c(F)c(-c4ccc(F)c5sc(N)c(C#N)c45)c(C(F)(F)F)cc23)CCC1=O [Compound 478] | 
9 | 100 to 1000 nM | 100 to 1000 nM | < 100 nM | 100 to 1000 nM | 100 to 1000 nM | < 100 nM | CN(c1nc(OC[C@@]23CCCN2C[C@H](F)C3)nc2c(F)c(-c3ccc(F)c4sc(N)c(C#N)c34)c(C(F)(F)F)cc12)[C@@H]1CC(=O)N2CCC[C@H]12 [Compound 479] | 
10 | 1000 to 10000 nM | 1000 to 10000 nM | < 100 nM | 1000 to 10000 nM | 1000 to 10000 nM | < 100 nM | CC(=O)N1C[C@H]2OCCN(c3nc(OC[C@@]45CCCN4C[C@H](F)C5)nc4c(F)c(-c5ccc(F)c6sc(N)c(C#N)c56)c(C(F)(F)F)cc34)[C@H]2C1 [Compound 480] | 

Continued, compound first:

Row | Compound | IC50 [1] | IC50 [2] | IC50 (GP2d cells (KRAS G12D); GP2d) | IC50 [3] | IC50 [4] | IC50 (SW620 cells (KRAS G12V)) | IC50 (GP2d cells (KRAS G12D))
11 | N#Cc1c(N)sc2c(F)ccc(-c3c(C(F)(F)F)cc4c(N5C[C@@H]6CC[C@H]5CN6C(=O)C5CC5)nc(OC[C@@]56CCCN5C[C@H](F)C6)nc4c3F)c12 [Compound 456] | 100 to 1000 nM | 100 to 1000 nM | < 100 nM | 100 to 1000 nM | 100 to 1000 nM | < 100 nM | 
12 | N#Cc1c(N)sc2c(F)ccc(-c3c(C(F)(F)F)cc4c(N5CCc6nocc6C5)nc(OC[C@@]56CCCN5C[C@H](F)C6)nc4c3F)c12 [Compound 457] | 100 to 1000 nM | 100 to 1000 nM | < 100 nM | 100 to 1000 nM | 100 to 1000 nM | < 100 nM | 
13 | C[C@@H]1[C@H](N(C)c2nc(OC[C@@]34CCCN3C[C@H](F)C4)nc3c(F)c(-c4ccc(F)c5sc(N)c(C#N)c45)c(C(F)(F)F)cc23)CCN1C(=O)C(F)F [Compound 458] | 100 to 1000 nM | 100 to 1000 nM | < 100 nM | 100 to 1000 nM | 100 to 1000 nM | < 100 nM | 
14 | C[C@@H]1[C@H](N(C)c2nc(OC[C@@]34CCCN3C[C@H](F)C4)nc3c(F)c(-c4ccc(F)c5sc(N)c(C#N)c45)c(C(F)(F)F)cc23)CCN1C(=O)C(C)(F)F [Compound 459] | 100 to 1000 nM | 100 to 1000 nM | < 100 nM | 100 to 1000 nM | 100 to 1000 nM | < 100 nM | 
15 | C[C@@H]1[C@H](N(C)c2nc(OC[C@@]34CCCN3C[C@H](F)C4)nc3c(F)c(-c4ccc(F)c5sc(N)c(C#N)c45)c(Cl)cc23)CCN1C(=O)CF [Compound 460] | 100 to 1000 nM | 100 to 1000 nM |  | 100 to 1000 nM | 100 to 1000 nM | < 100 nM | < 100 nM
16 | C[C@@H]1[C@H](N(C)c2nc(OC[C@@]34CCCN3C[C@H](F)C4)nc3c(F)c(-c4ccc(F)c5sc(N)c(C#N)c45)c(C(F)(F)F)cc23)CCN1C(=O)CF [Compound 461] | 100 to 1000 nM | 100 to 1000 nM |  | < 100 nM | < 100 nM | < 100 nM | < 100 nM
17 | CN(c1nc(OC[C@@]23CCCN2C[C@H](F)C3)nc2c(F)c(-c3ccc(F)c4sc(N)c(C#N)c34)c(C(F)(F)F)cc12)[C@H]1C[C@H](CF)N(C(=O)C2CC2)C1 [Compound 462] | 100 to 1000 nM | 100 to 1000 nM | < 100 nM | 100 to 1000 nM | 100 to 1000 nM | < 100 nM | 
18 | CCC(=O)N1C[C@@H](N(CC)c2nc(OC[C@@]34CCCN3C[C@H](F)C4)nc3c(F)c(-c4ccc(F)c5sc(N)c(C#N)c45)c(C(F)(F)F)cc23)C[C@@H]1C [Compound 464] | < 100 nM | < 100 nM | < 100 nM | 100 to 1000 nM | < 100 nM | < 100 nM | 
19 | CN(C)C(=O)[C@H]1CN(c2nc(OC[C@@]34CCCN3C[C@H](F)C4)nc3c(F)c(-c4ccc(F)c5sc(N)c(C#N)c45)c(C(F)(F)F)cc23)CCO1 [Compound 465] | 100 to 1000 nM | 100 to 1000 nM | < 100 nM | 100 to 1000 nM | < 100 nM | < 100 nM | 
20 | CN(C)C(=O)c1nnn2c1CN(c1nc(OC[C@@]34CCCN3C[C@H](F)C4)nc3c(F)c(-c4ccc(F)c5sc(N)c(C#N)c45)c(C(F)(F)F)cc13)CC2 [Compound 466] | 100 to 1000 nM | 100 to 1000 nM | < 100 nM | 100 to 1000 nM | 100 to 1000 nM | < 100 nM | 
